Laboratory results reported in PMC3605511, “Tumor P-Glycoprotein Correlates with Efficacy of PF-3758309 in in vitro and in vivo Models of Colorectal Cancer” (Frontiers in Pharmacology, 2013).
Where two headings read alike, the source gives them in different places.

Experiments:
SW948 = assay: Cell proliferation assay, SW948; format: cell-based; conditions: Homo sapiens; SW948, 72 h, SRB assay
Experimental: (§1) Cytotoxic/proliferation effects were determined using the sulforhodamine B (SRB) assay (Skehan et al., [1990]) or by resazurin. Briefly, cells in logarithmic growth phase were transferred to 96 well flat bottom plates with lids. One-hundred microliter cell suspensions containing 1500–5000 viable cells were plated into each well and incubated overnight prior to exposure with increasing concentrations of PF-309 for 3–5 days, dependent upon cell type. Media was removed and cells were fixed with cold 10% trichloroacetic acid for 30 min at 4°C. Cells were then washed with water and stained with 0.4% SRB (Fisher Sci., Pittsburgh, PA, USA) for 30 min at room temperature, washed again with 1% acetic acid, followed by stain solubilization with 10 mM tris at room temperature. The plate was then read on a plate reader (Biotek Synergy 2, Winooski, VT, USA) set at an absorbance wavelength of 565 nm. Cell proliferation curves were derived from the raw absorbance (OD) data.
(§2) Since PF-309 appeared to be a strong P-gp and BCRP substrates, we sought to evaluate if the transporters influenced sensitivity in vitro. We evaluated the sensitivity of CRC cell lines to PF-309 treatment in a panel of 27 lines. Cells were exposed to PF-309 at a range of concentrations for 72 h and cell content measured by SRB assay (see Pitts et al., [2013]). […]

[1] = system: SW480 cell line xenograft; assay: CRC cell line xenograft efficacy, SW480; format: in vivo, mice; conditions: 25 mg/kg orally twice daily, 14–28 days, end of study tumor volumes
Experimental: For cell line xenografts, CRC cells were harvested in exponential phase growth and resuspended in a 1:1 mixture of serum-free RPMI 1640 and Matrigel (BD Biosciences). Five to ten million cells per mouse were injected subcutaneously into the flank using a 23-gauge needle. Mice were monitored daily for signs of toxicity and were weighed twice weekly. Tumor size was evaluated twice per week by caliper measurements using the following formula: tumor volume = length × width^2 × 0.52. When tumors reached 200–300 mm^3 mice were randomized into two groups with at least 10 tumors per group. Mice were then treated for 14–28 days (until control tumor volume reach ∼1500 mm^3) with either vehicle control (0.5% methylcellulose), or PF-3758309 (25 mg/kg) twice daily by oral gavage.
Human tumor xenograft models were used to evaluate the efficacy of PF-309 in vivo. Eleven different CRC cell line tumor xenografts were treated with 25 mg/kg PF-309 twice daily by oral gavage for 14–28 days (until control tumor volumes reached ∼1500 mm^3). Tumor volumes were measured throughout the study and the % growth inhibition was calculated from the average end of study tumor volumes by:
% Growth Inhibition= (average control volume−average treated volume)/average control volume×100%

Caco-2 = assay: Cell proliferation assay, Caco-2; format: cell-based; conditions: Homo sapiens
Experimental: as §1, §2

SW620 = assay: Cell proliferation assay, SW620; format: cell-based; conditions: Homo sapiens, SW-620; SW620, 72 h, SRB assay
Experimental: as §1, §2

SW1116 = assay: Cell proliferation assay, SW1116; format: cell-based; conditions: Homo sapiens, SW 1116; SW1116, 72 h, SRB assay
Experimental: as §1, §2

DLD1 PgP_KD1 = assay: Proliferation after shRNA knockdown of P-gp, DLD1 PgP_KD1; format: cell-based; conditions: Homo sapiens, DLD-1; DLD1 PgP_KD1:50, P-gp shRNA knockdown
Experimental: as §1
The pGIPZ Pgp-specific shRNA expression cassettes, along with control shRNA plasmids including the original pGIPZ vector were purchased from Open Biosystems (Birmingham, AL, USA). […] Successful knockdown of specific genes and gene products was confirmed by semi-quantitative RT-PCR and immunoblotting with specific antibodies. […]

T84 = assay: Cell proliferation assay, T84; format: cell-based; conditions: Homo sapiens; T84, PF-309 alone, 72 h; 1 uM was the maximum concentration used
Experimental: as §1, §2

GEO = assay: Cell proliferation assay, GEO; format: cell-based; conditions: Homo sapiens, 72 h, SRB assay
Experimental: as §1, §2

COLO205 = assay: Cell proliferation assay, COLO205; format: cell-based; conditions: Homo sapiens, COLO 205; COLO205, 72 h, SRB assay
Experimental: as §1, §2

## Cc1nc(Nc2n[nH]c3c2CN(C(=O)N[C@H](CN(C)C)c2ccccc2)C3(C)C)c2sccc2n1 [PF-309]
SW948
  IC50: > 1000 nM
[1]
  % Growth inhibition: 42%
Caco-2; Caco-2, CACO2, 72 h, SRB assay, read-out: IC50
  IC50: > 1000 nM
Caco-2; Caco-2, PF-309 alone, 72 h, read-out: PF-309 IC50
  IC50: 300 nM
SW620
  IC50: 5 ± 3.1 nM
SW1116
  IC50: > 1000 nM
DLD1 PgP_KD1
  IC50: 26 nM
T84
  IC50: > 1000 nM
GEO
  IC50: > 1000 nM
COLO205
  IC50: 4.2 ± 1.4 nM
